# Reference: patent US20060084599A1, “Compositions, methods and kits relating to notch signaling” (Maine Medical Center, priority 2003, published 2006)
# Marks after values point to notes of the source that are not given here.
# What was measured:
# Type in all cases: cell-based, murine
# cortical neurospheres = test: Cortical neurosphere model, secondary sphere formation; details: for F/SP × 10^2 / Cells/Founder (F) / Secondary Spheres (SP): at day 10; for Cells/Founder (F) / Secondary Spheres (SP): mean ± SD of three experiments; for secondary spheres per primary sphere: primary spheres grown 2 weeks with factor, secondary spheres in standard media
# From the text: Murine E13 cerebral cortices were dissected, the ventricular zone isolated, dissected free of the meninges and utilized as a source for the generation of clonal neurspheres. The resulting cells were dispersed by aspiration to produce single cells and cells expressing the […], CD24 as previously described (Rietze et al., 2001), and peanut agglutinin antigen (PNA) were sorted using a FASC Vantage SE cell sorter at a low gate (CD24^low/PNA^low), and the cells were subjected to immunofluoresence microscopy using an antibody against CD24 (Rietze et al., 2001, Nature 412:736-739). Double-positive cells (2×10^3 /ml) were plated in suspension as described (Reynolds et al., 1992, J. Neurosci. 12:4565-4574; Reynolds et al., 1992, Science 255:1707-1710) and secondary neurospheres generated 14 days later by isolating single spheres followed by trypsin digestion of each sphere. Cells obtained from the sphere were placed in suspension culture at a clonal cell seed density and colonies selected.
# The E14 prefrontal ventricular zone was dissected and plated at a clonal neurosphere-forming density in the presence of either sJ1, sDl1, thrombin, TRAP or no supplementation. After 2 weeks, the clones were dissociated to single cells and secondary spheres were generated using standard media with no supplementation (Reynolds et al., 1992, J. Neurosci. 12:4565-4574).
# Secondary spheres (SP) are formed from the dissociation of founder (F) spheres. The data presented are the number of colonies (mean ± SD of three experiments). (*=p#0.05).
# FGF1.A transcript = test: RT-PCR analysis of FGF1.A mRNA in NCSC; details: 48 hours; 7.5 nM sJ1, 5.0 nM sDl1, 10 μg/ml α-thrombin or 5 μg/ml TRAP
# NCSC populations [1] = test: Serial subcloning and clonogenic differentiation of secondary NCSC; parameters: G (glial only) colonies / Sm (smooth muscle only) colonies / G + Sm colonies: unit not given here; details: for G (glial only) colonies / G + Sm colonies / N (neurons only) colonies / N + G + Sm (trifatent) colonies / N + G colonies / N + Sm colonies / Sm (smooth muscle only) colonies: differentiation profile of secondary NCSC clones; for G (glial only) colonies / G + Sm colonies / N (neurons only) colonies / N + G + Sm (trifatent) colonies / N + G colonies / N + Sm colonies / Sm (smooth muscle only) colonies / Secondary NSSC/ Founder: mean ± SD of three experiments; for clones that were trifatent (neurons, glial, and smooth muscle progeny): secondary clones from treated founder clones; for Secondary NSSC/ Founder: secondary stem cells from NCSC founders after ten days of expansion
# Protocol: (§1) Clonogenic assays were performed as described (Stemple et al., 1992, Cell 71:973-985). Briefly, populations of murine NCSC were plated at a clonal density and maintained for a maximum of 14 days in Morrison media supplemented with 15% chick embryo extract (Morrison et al., 1999, Cell 96:737-749). The resulting clones were fixed in an acetic acid:ethanol solution (2:1) and stained with antibodies against peripherin (Chemicon) to detect neurons, smooth muscle actin (Sigma) to detect myofibroblasts, and GFAP (Chemicon) to detect Schwann cells. Clones were scored based on the appearance of just one phenotypic representative. The number and percentage of clones containing neurons only (N), Schwann cells only (S), myofibroblasts only (M), N+S, N+M, N+S+M, and S+M were scored at day 14 unless otherwise stated. The production of each representative phenotype in each individual clone was also scored to complement the clonal population assay.
# In order to generate secondary NCSC populations, founder clones originating from differentiating E10 clones at distinct time points during NCSC differentiation (days 2 through 18) were treated with trypsin and replated at a cell clonal density using methods previously described (Kubu et al., 2000, Genomics 70:150-152). The resulting cells were subjected to immunofluorescence microscopy using both p75^+ and P0^− antibodies (Kubu et al., 2000, Genomics 70:150-152) and the p75^+/P0^− cells identified as putative stem cells. All non-p75^+/P0^− cells were removed from the dish with a tungsten needle. The cultures of secondary NCSC clones were subjected to the clonogenic assay as described above.
# [2] = test system: Nestin, Nucleostemin, and Bmi1 transcripts; test: RT-PCR of stem cell marker transcripts; details: for levels of Nestin, Nucleostemin and Bmi1 transcripts: p75+/P0- neural crest stem cells, 24 and 48 hours; for relative expression of Nestin, Nucleostemin and Bmi1 transcripts: primary and secondary neurosphere cultures
# Protocol: RT-PCR was performed with 1 μg RNA using the Platinum Taq One Step RT-PCR kit (Invitrogen) as follows: RT (30 minutes at 50° C.), PCR (40 cycles at 94° C. for 15 seconds, at 58° C. for 30 seconds and 72° C. for 1 minute). All amplified cDNA was visualized with ethidium bromide followed by 1.5% agarose gel electrophoresis. RT-PCR analysis of fgf and gapdh was performed as previously described elsewhere herein. RT-PCR analysis of stem cell RNA was performed as previously described (Verdi et al., 1994, Neuron 13:1359-1372; Verdi et al., 1996, Neuron 16:515-527) using primers generating amplification products of Nucleostemin from 894 to 1304 of the mouse cDNA (sense: Nucleostemin 894 5′-CAAATGTGGGGAAAAGCAGTGTCA-3′ [SEQ ID NO:34] and antisense: Nucleostemin 1304 5′-GCAGGGGGATGGCAATAGTAACC-3′ [SEQ ID NO:35]); Bmi1 from 242 to 632 of mouse cDNA (sense: Bmi 242 5′-AATTAGTCCCAGGGCTTTTCAA-3′ [SEQ ID NO:36] and antisense: Bmi 632 5′-GGGCCATTTCTTCTCCAGGTAT-3′ [SEQ ID NO:37]), and Nestin from 320-748 (sense: Nestin 320 5′-CA ACC TTG CCG AAG AGC TGG-3′ [SEQ ID NO:38] and antisense: Nestin 720 5′-TCTAAGCGACTCTCCGAGCGC-3′ [SEQ ID NO:39]). Each reaction product was measured as a ratio relative to the amplification product of actin and samples were run in triplicate. All RT-PCR experiments were performed at least three times from separate stem cell isolations. Dual Luciferase Reporter Assay
# NCSC populations [3] = test: Clonogenic differentiation of primary NCSC clones (differentiation markers, GFAP immunoreactivity); details: for NCSC clones not expressing gliogenic or neurogenic differentiation markers: after 7 days of expansion
# Protocol: as §1
# Instead of examining the NCSC progeny after 14 days, developing clones were examined beginning at day 2 in order to determine the time period when gliogenic differentiation was initiated.
# Specifically, clonogenic differentiation and serial subcloning assays were performed using NCSC clones incubated with either thrombin, sDl1, sJ1 or TRAP.
Molecule,F/SP × 10^2 (cortical neurospheres),Cells/Founder (F) (cortical neurospheres),Secondary Spheres (SP) (cortical neurospheres),secondary spheres per primary sphere (cortical neurospheres),expression of the FGF1.A transcript in NCSC (FGF1.A transcript),G (glial only) colonies (NCSC populations [1]),G + Sm colonies (NCSC populations [1]),N (neurons only) colonies (NCSC populations [1]),N + G + Sm (trifatent) colonies (NCSC populations [1]),N + G colonies (NCSC populations [1]),N + Sm colonies (NCSC populations [1]),Sm (smooth muscle only) colonies (NCSC populations [1]),"clones that were trifatent (neurons, glial, and smooth muscle progeny) (NCSC populations [1]) [%]",Secondary NSSC/ Founder (NCSC populations [1]),"levels of Nestin, Nucleostemin and Bmi1 transcripts [2]","relative expression of Nestin, Nucleostemin and Bmi1 transcripts [2]",NCSC clones not expressing gliogenic or neurogenic differentiation markers (NCSC populations [3]) [%],percentage of the colony expressing the glial-specific protein (GFAP) (NCSC populations [3]; at day 7),gliogenic differentiation of NCSC (NCSC populations [3]; two week differentiation assay),exposure time after which GFAP immunoreactive cells were detected (NCSC populations [3]; NCSC populations) [h]
"sJ1: Soluble Jagged1, amino acid residues about 1 to 1067 (SEQ ID NO:3) of full-length human Jagged1",10%*,527 ± 170*,55 ± 14,64±11,induced the expression of the FGF1.A transcript,7.8 ± 1.4,3.4 ± 2.8,0,74.1 ± 9.1,7.0 ± 5.6,1.5 ± 1.7,6.2 ± 1.0,74.1±9,26.2 ± 6,no significant change,elevated,84±7,23±5,capable of inducing gliogenic differentiation of the NCSC population over the two week period,
thrombin,13%*,488 ± 166*,64 ± 11,55±14,induced the expression of the FGF1.A transcript,0 ± 0,2.0 ± 2.1,0,86.8 ± 2.1,3.93 ± 3.8,4.5 ± 2.1,2.6 ± 1.01,86.8±2.1,36.8 ± 6.3,no significant change,elevated,75±11,,,
"sDl1: soluble non-transmembrane form (extracellular domain) of the Notch ligand Delta1 (protein, left off: small tags and cut ends, soluble non-transmembrane form (extracellular domain) of the Notch ligand Delta1) QVWSSGVFELKLQEFVNKKGLLGNRNCCRGGAGPPPCACRTFFRVCLKHYQASVSPEPPCTYGSAVTPVLGVDSFSLPDGGGADSAFSNPIRFPFGFTWPGTFSLIIEALHTDSPDDLATENPERLISRLATQRHLTVGEEWSQDLHSSGRTDLKYSYRFVCDEHYYGEGCSVFCRPRDDAFGHFTCGERGEKVCNPGWKGPYCTEPICLPGCDEQHGFCDKPGECKCRVGWQGRYCDECIRYPGCLHGTCQQPWQCNCQEGWGGLFCNQDLNYCTHHKPCKNGATCTNTGQGSYTCSCRPGYTGATCELGIDECDPSPCKNGGSCTDLENSYSCTCPPGFYGKICELSAMTCADGPCFNGGRCSDSPDGGYSCRCPVGYSGFNCEKKIDYCSSSPCSNGAKCVDLGDAYLCRCQAGFSGRHCDDNVDDCASSPCANGGTCRDGVNDFSCTCPPGYTGRNCSAPVSRCEHAPCHNGATCHERGHRYVCECARGYGGPNCQFLLPELPPGPAVVDLTEKLEGQGGPFPW",2.0%,150 ± 69*,3 ± 3,3±3,did not influence the steady-state levels of the FGF1.A transcript,72 ± 6.4,3.4 ± 2.8,0,0.5 ± 0.7,0,0,20.5 ± 6.5,0.5,0.6 ± 1.0,sharply decreased,,0±0,,,48
